The text below walks through data of paper PMC5518309 (ChemMedChem, 2014).

For data set [1] the following is noted: cited from earlier work.
In data set [2] the target is hY4R (Homo sapiens, UniProt P50391). In words: Radioligand binding assay, displacement of [3H]-hPP.
The nature of data set [3]: Stability test in human blood plasma. The class given is in vitro ADME. Particulars: human.
Data set [4] is described as follows: Metabolic stability in porcine liver homogenates. The class given is in vitro ADME. Particulars: pig, porcine liver homogenate (supernatant).

Peptide text beside a SMILES is read from it. * marks the point of attachment. X1 = CN(C)c1ccc2c(c1)Oc1cc(N(C)C)ccc1C21OC(=O)c2ccc(C(=O)*)cc21

Sequence of hY4R (P50391 whole entry): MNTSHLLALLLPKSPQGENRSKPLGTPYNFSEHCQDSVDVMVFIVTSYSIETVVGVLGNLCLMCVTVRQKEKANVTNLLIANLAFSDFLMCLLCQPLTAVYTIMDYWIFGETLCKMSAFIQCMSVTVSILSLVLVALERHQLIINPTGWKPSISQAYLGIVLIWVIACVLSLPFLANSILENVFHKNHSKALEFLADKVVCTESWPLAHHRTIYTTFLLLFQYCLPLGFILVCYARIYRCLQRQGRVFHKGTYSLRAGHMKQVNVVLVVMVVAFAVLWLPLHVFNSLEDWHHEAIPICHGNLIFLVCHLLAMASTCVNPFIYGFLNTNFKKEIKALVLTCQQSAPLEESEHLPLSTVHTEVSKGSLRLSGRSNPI

On to pancreatic polypeptide [PP], for which, in data set [1], the “half-life in the circulation” value is given as “less than 7 min”.

`CCCCCCCCCCCCCCCC(=O)N[C@@H](CCC(=O)NCCCC[C@H](NC(=O)[C@@H](NC(=O)[C@@H]1CCCN1C(=O)[C@H](CCC(=O)O)NC(=O)[C@H](CC(C)C)NC(=O)[C@@H]1CCCN1C(=O)[C@H](C)NC(=O)c1ccc2c(c1)C(=O)OC21c2ccc(O)cc2Oc2cc(O)ccc21)C(C)C)C(=O)N1CCC[C@H]1C(=O)NCC(=O)N[C@@H](CC(=O)O)C(=O)N[C@@H](CC(N)=O)C(=O)N[C@@H](C)C(=O)N[C@H](C(=O)N1CCC[C@H]1C(=O)N[C@@H](CCC(=O)O)C(=O)N[C@@H](CCC(N)=O)C(=O)N[C@@H](CCSC)C(=O)N[C@@H](C)C(=O)N[C@@H](CCC(N)=O)C(=O)N[C@@H](Cc1ccc(O)cc1)C(=O)N[C@@H](C)C(=O)N[C@@H](C)C(=O)N[C@@H](CC(=O)O)C(=O)N[C@@H](CC(C)C)C(=O)N[C@@H](CCCNC(=N)N)C(=O)N[C@@H](CCCNC(=N)N)C(=O)N[C@@H](Cc1ccc(O)cc1)C(=O)N[C@H](C(=O)N[C@@H](CC(N)=O)C(=O)N[C@@H](CCSC)C(=O)N[C@@H](CC(C)C)C(=O)N[C@H](C(=O)N[C@@H](CCCNC(=N)N)C(=O)N1CCC[C@H]1C(=O)N[C@@H](CCCNC(=N)N)C(=O)N[C@@H](Cc1ccc(O)cc1)C(N)=O)[C@@H](C)O)[C@@H](C)CC)[C@@H](C)O)C(=O)O` [compound 3, CF-[K^7(E-Pam)]hPP] yielded a half-inhibitory concentration (IC50) in data set [2] of 401 nM.

Compound `CCCCCCCCCCCCCCCC(=O)N[C@@H](CCC(=O)NCCCC[C@H](NC(=O)[C@H](CC(N)=O)NC(=O)[C@@H](NC(=O)[C@H](Cc1ccc(O)cc1)NC(=O)[C@H](CCCNC(=N)N)NC(=O)[C@H](CCCNC(=N)N)NC(=O)[C@H](CC(C)C)NC(=O)[C@H](CC(=O)O)NC(=O)[C@H](C)NC(=O)[C@H](C)NC(=O)[C@H](Cc1ccc(O)cc1)NC(=O)[C@H](CCC(N)=O)NC(=O)[C@H](C)NC(=O)[C@H](CCSC)NC(=O)[C@H](CCC(N)=O)NC(=O)[C@H](CCC(=O)O)NC(=O)[C@@H]1CCCN1C(=O)[C@@H](NC(=O)[C@H](C)NC(=O)[C@H](CC(N)=O)NC(=O)[C@H](CC(=O)O)NC(=O)CNC(=O)[C@@H]1CCCN1C(=O)[C@H](Cc1ccc(O)cc1)NC(=O)[C@@H](NC(=O)[C@@H]1CCCN1C(=O)[C@H](CCC(=O)O)NC(=O)[C@H](CC(C)C)NC(=O)[C@@H]1CCCN1C(=O)[C@H](C)NC(=O)c1ccc2c(c1)C(=O)OC21c2ccc(O)cc2Oc2cc(O)ccc21)C(C)C)[C@@H](C)O)[C@@H](C)CC)C(=O)N[C@@H](CC(C)C)C(=O)N[C@H](C(=O)N[C@@H](CCCNC(=N)N)C(=O)N1CCC[C@H]1C(=O)N[C@@H](CCCNC(=N)N)C(=O)N[C@@H](Cc1ccc(O)cc1)C(N)=O)[C@@H](C)O)C(=O)O` [compound 6, CF-[K^30(E-Pam)]hPP] displayed a half-inhibitory concentration (IC50) in data set [2] of 14.9 nM.

`CCCCCCCCCCCCCCCC(=O)N[C@@H](CCC(=O)NCCCC[C@H](NC(=O)[C@H](C)NC(=O)[C@H](Cc1ccc(O)cc1)NC(=O)[C@H](CCC(N)=O)NC(=O)[C@H](C)NC(=O)[C@H](CCSC)NC(=O)[C@H](CCC(N)=O)NC(=O)[C@H](CCC(=O)O)NC(=O)[C@@H]1CCCN1C(=O)[C@@H](NC(=O)[C@H](C)NC(=O)[C@H](CC(N)=O)NC(=O)[C@H](CC(=O)O)NC(=O)CNC(=O)[C@@H]1CCCN1C(=O)[C@H](Cc1ccc(O)cc1)NC(=O)[C@@H](NC(=O)[C@@H]1CCCN1C(=O)[C@H](CCC(=O)O)NC(=O)[C@H](CC(C)C)NC(=O)[C@@H]1CCCN1C(=O)[C@H](C)NC(=O)c1ccc2c(c1)C(=O)OC21c2ccc(O)cc2Oc2cc(O)ccc21)C(C)C)[C@@H](C)O)C(=O)N[C@@H](CC(=O)O)C(=O)N[C@@H](CC(C)C)C(=O)N[C@@H](CCCNC(=N)N)C(=O)N[C@@H](CCCNC(=N)N)C(=O)N[C@@H](Cc1ccc(O)cc1)C(=O)N[C@H](C(=O)N[C@@H](CC(N)=O)C(=O)N[C@@H](CCSC)C(=O)N[C@@H](CC(C)C)C(=O)N[C@H](C(=O)N[C@@H](CCCNC(=N)N)C(=O)N1CCC[C@H]1C(=O)N[C@@H](CCCNC(=N)N)C(=O)N[C@@H](Cc1ccc(O)cc1)C(N)=O)[C@@H](C)O)[C@@H](C)CC)C(=O)O` [compound 5, CF-[K^22(E-Pam)]hPP]: the half-maximal inhibitory concentration (IC50) in data set [2] is 8.6 nM.

With `CC[C@H](C)[C@H](NC(=O)[C@H](Cc1ccc(O)cc1)NC(=O)[C@H](CCCNC(=N)N)NC(=O)[C@H](CCCNC(=N)N)NC(=O)[C@H](CC(C)C)NC(=O)[C@H](CC(=O)O)NC(=O)[C@H](C)NC(=O)[C@H](C)NC(=O)[C@H](Cc1ccc(O)cc1)NC(=O)[C@H](CCC(N)=O)NC(=O)[C@H](C)NC(=O)[C@H](CCSC)NC(=O)[C@H](CCC(N)=O)NC(=O)[C@H](CCC(=O)O)NC(=O)[C@@H]1CCCN1C(=O)[C@@H](NC(=O)[C@H](C)NC(=O)[C@H](CC(N)=O)NC(=O)[C@H](CC(=O)O)NC(=O)CNC(=O)[C@@H]1CCCN1C(=O)[C@H](Cc1ccc(O)cc1)NC(=O)[C@@H](NC(=O)[C@@H]1CCCN1C(=O)[C@H](CCC(=O)O)NC(=O)[C@H](CC(C)C)NC(=O)[C@@H]1CCCN1)C(C)C)[C@@H](C)O)C(=O)N[C@@H](CC(N)=O)C(=O)N[C@@H](CCCCNC(=O)c1ccc2c(c1)C1(OC2=O)c2ccc(N(C)C)cc2Oc2cc(N(C)C)ccc21)C(=O)N[C@@H](CC(C)C)C(=O)N[C@H](C(=O)N[C@@H](CCCNC(=N)N)C(=O)N1CCC[C@H]1C(=O)N[C@@H](CCCNC(=N)N)C(=O)N[C@@H](Cc1ccc(O)cc1)C(N)=O)[C@@H](C)O` [compound 20, [K^30(TAMRA)]hPP2–36] (H-PLEPVYPGDNATPEQMAQYAADLRRYINK(X1)LTRPRY-NH2), the half-life at 10 μM was around 100 h in data set [3] and 19.7 ± 0.4 h in data set [4].

On to `CC[C@H](C)[C@H](NC(=O)[C@H](Cc1ccc(O)cc1)NC(=O)[C@H](CCCNC(=N)N)NC(=O)[C@H](CCCNC(=N)N)NC(=O)[C@H](CC(C)C)NC(=O)[C@H](CC(=O)O)NC(=O)[C@H](C)NC(=O)[C@H](C)NC(=O)[C@H](Cc1ccc(O)cc1)NC(=O)[C@H](CCC(N)=O)NC(=O)[C@H](C)NC(=O)[C@H](CCSC)NC(=O)[C@H](CCC(N)=O)NC(=O)[C@H](CCC(=O)O)NC(=O)[C@@H]1CCCN1C(=O)[C@@H](NC(=O)[C@H](C)NC(=O)[C@H](CC(N)=O)NC(=O)[C@H](CC(=O)O)NC(=O)CNC(=O)[C@@H]1CCCN1C(=O)[C@H](Cc1ccc(O)cc1)NC(=O)[C@@H](NC(=O)[C@@H]1CCCN1C(=O)[C@H](CCC(=O)O)NC(=O)[C@H](CC(C)C)NC(=O)[C@@H]1CCCN1C(=O)c1ccc2c(c1)C1(OC2=O)c2ccc(N(C)C)cc2Oc2cc(N(C)C)ccc21)C(C)C)[C@@H](C)O)C(=O)N[C@@H](CC(N)=O)C(=O)N[C@@H](CCCCN)C(=O)N[C@@H](CC(C)C)C(=O)N[C@H](C(=O)N[C@@H](CCCNC(=N)N)C(=O)N1CCC[C@H]1C(=O)N[C@@H](CCCNC(=N)N)C(=O)N[C@@H](Cc1ccc(O)cc1)C(N)=O)[C@@H](C)O` [14b, TAMRA-[K^30]hPP2–36] (X1-PLEPVYPGDNATPEQMAQYAADLRRYINKLTRPRY-NH2), for which the half-life at 10 μM in data set [3] is around 100 h; in data set [4], 11 ± 0.4 h.

For orientation: IC50 means the midpoint of a concentration-inhibition curve. Read a high IC50 as weaker potency. What is called half-life is the time needed for the level to fall by half in the phase considered. Higher therefore signals slow loss.
